Test systems include 786-0 renal; A498 renal; A549 NSCLC; CAKI-1 renal; COLO 205 colon; HCT-15 colon; MALME-3M melanoma; OVCAR-5 ovarian; RXF 393 renal; PC-3 prostate.
What all share (assay): DTP human tumour cell line panel, 48 h

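Interpolation was linear, between the two tested concentrations surrounding the appropriate level; five concentrations were tested over 48 hours in 96-well plates. At the GI50, growth is halved. TGI: concentration producing complete growth inhibition.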 Where only a bound is given, the exact number is not on record here.

The results in this text go back to PubChem BioAssay (NCI).

As usually defined, the GI50 is the concentration that inhibits growth by half. As usually defined, the TGI is the concentration giving total growth inhibition. A high value points to lower sensitivity of the cells. Regarding `CC(=O)[O][Pb]([O]C(C)=O)([c]1ccccc1)[c]1ccccc1`, the GI50 in the experiment on 786-0 renal is 3.53 µM; with A498 renal it was 23.4 µM; in the experiment on A549 NSCLC, greater than 100 µM; in the experiment with CAKI-1 renal, 13.7 µM; in the experiment on COLO 205 colon, 1.76 µM; in the experiment with HCT-15 colon, 7.06 µM. Further, the figures for the GI50 in the experiment on MALME-3M melanoma, with OVCAR-5 ovarian and in the experiment on RXF 393 renal were greater than 100 µM, 25.9 µM and 1.41 µM, respectively. The TGI is greater than 100 µM in the experiment on 786-0 renal; greater than 100 µM in the experiment with A498 renal; greater than 100 µM in the experiment on A549 NSCLC; greater than 100 µM in the experiment with CAKI-1 renal; 15 µM with COLO 205 colon; greater than 100 µM with HCT-15 colon. Further, the TGI in the experiment on MALME-3M melanoma is greater than 100 µM; in the experiment on OVCAR-5 ovarian it was greater than 100 µM; in the experiment with RXF 393 renal, 5.69 µM.

For `CCN=C1C=CC(=C(c2ccc(N(C)C)cc2)c2ccc(N(C)C)cc2)c2ccccc21`, the GI50 was 0.0866 µM in the experiment on 786-0 renal; 0.16 µM with A498 renal; 0.0312 µM in the experiment with A549 NSCLC; 0.2 µM with CAKI-1 renal; 0.0508 µM in the experiment with COLO 205 colon; 0.294 µM in the experiment with HCT-15 colon. Besides, the GI50 was 0.026 µM in the experiment on MALME-3M melanoma, 0.215 µM in the experiment with OVCAR-5 ovarian and 0.0468 µM in the experiment with PC-3 prostate. The TGI in the experiment with 786-0 renal is 0.37 µM; in the experiment on A498 renal, 0.453 µM; in the experiment on A549 NSCLC, 0.176 µM; in the experiment with CAKI-1 renal, 0.52 µM; in the experiment with COLO 205 colon, 0.183 µM; in the experiment on HCT-15 colon it was 1.31 µM. The figures for the total growth inhibition concentration (TGI) with MALME-3M melanoma, with OVCAR-5 ovarian and in the experiment with PC-3 prostate were 0.0855 µM, 1.19 µM and 1.06 µM, respectively.

Turning to `CN(C)c1ccc2c(NCCCCCCNc3ccnc4cc(N(C)C)ccc34)ccnc2c1`, the concentration for total growth inhibition (TGI) with 786-0 renal was 45.3 µM; in the experiment on A498 renal, 95.8 µM; with A549 NSCLC, greater than 100 µM; with CAKI-1 renal it was greater than 100 µM; with HCT-15 colon, greater than 100 µM; in the experiment on MALME-3M melanoma it was 12.9 µM. The TGI was found to be 79.6 µM in the experiment with OVCAR-5 ovarian and 38.4 µM in the experiment with RXF 393 renal.

On to `CCN1C(=O)N(CC)C2C1NN=c1s/c(=C3\C(=O)N(C(C)C)c4ccccc43)c(=O)n12` (centres undefined), for which the GI50 is 0.852 µM in the experiment with 786-0 renal; 0.239 µM in the experiment with A498 renal; 0.459 µM with A549 NSCLC; 0.423 µM with CAKI-1 renal; 0.337 µM with COLO 205 colon; 0.322 µM with HCT-15 colon. The GI50 in the experiment on MALME-3M melanoma was 1.18 µM; in the experiment with OVCAR-5 ovarian, 0.639 µM; in the experiment with PC-3 prostate, 0.412 µM. The TGI in the experiment with 786-0 renal is 17.7 µM; in the experiment with A498 renal it was 0.91 µM; in the experiment with A549 NSCLC it was greater than 100 µM; in the experiment with CAKI-1 renal, greater than 54.4 µM; in the experiment on COLO 205 colon it was 1.8 µM; in the experiment on HCT-15 colon, greater than 100 µM. The concentration for total growth inhibition (TGI) with MALME-3M melanoma, in the experiment with OVCAR-5 ovarian and with PC-3 prostate was greater than 100 µM each time.

In the case of `COc1cc2cc(Oc3ccc(NC(=O)Nc4ccc(Cl)c(C(F)(F)F)c4)cc3)c(C)nc2cc1OCCN1CCCCC1`, the GI50 is 1.64 µM in the experiment on 786-0 renal; 1.24 µM in the experiment on A498 renal; 1.31 µM in the experiment with CAKI-1 renal; 1.65 µM in the experiment on COLO 205 colon; 1.25 µM in the experiment on HCT-15 colon; 1.62 µM with MALME-3M melanoma. Also, the figures for the GI50 in the experiment with OVCAR-5 ovarian and in the experiment on PC-3 prostate were 1.92 µM and 1.27 µM, respectively. Moreover, the TGI in the experiment with 786-0 renal stood at 3.17 µM; in the experiment on A498 renal, 2.58 µM; in the experiment with CAKI-1 renal, 2.64 µM; in the experiment with COLO 205 colon, 3.33 µM; in the experiment with HCT-15 colon, 2.59 µM; with MALME-3M melanoma, 3.13 µM. The TGI in the experiment on OVCAR-5 ovarian came out at 3.38 µM; with PC-3 prostate it was 2.69 µM.

Turning to `C=C1C(=O)O[C@H]2C[C@@H](C)[C@@H]3CC(=O)OC[C@@]3(C)CC12` (some centres undefined), the TGI with 786-0 renal is greater than 100 µM; with A549 NSCLC, greater than 100 µM; with CAKI-1 renal, 51 µM; in the experiment on COLO 205 colon, 60.7 µM; with HCT-15 colon it was greater than 100 µM; with MALME-3M melanoma, 35 µM.

In the case of `CC(=O)/C(=C\c1ccco1)C(=O)Nc1ccccc1`, the concentration for total growth inhibition (TGI) in the experiment on 786-0 renal, with A549 NSCLC, in the experiment with CAKI-1 renal, with HCT-15 colon, with MALME-3M melanoma and in the experiment on RXF 393 renal was greater than 100 µM throughout.

As to `COC12C=CC(CC1)c1c(O)ccc(O)c12` (centres undefined), the concentration for total growth inhibition (TGI) is greater than 100 µM in the experiment on 786-0 renal; greater than 100 µM in the experiment on A498 renal; greater than 100 µM in the experiment on A549 NSCLC; greater than 100 µM in the experiment with CAKI-1 renal; 57 µM in the experiment on COLO 205 colon; greater than 55.9 µM with HCT-15 colon. For the same compound, the TGI with MALME-3M melanoma, in the experiment on OVCAR-5 ovarian and in the experiment on RXF 393 renal was greater than 100 µM in each case.

Turning to `CC1CC2C(=O)NC(=O)C2c2[nH]c3ccccc3c21` (centres undefined), the TGI with 786-0 renal, in the experiment on A549 NSCLC, in the experiment with CAKI-1 renal, in the experiment on COLO 205 colon, with HCT-15 colon and in the experiment with MALME-3M melanoma was greater than 100 µM each time. Besides, the TGI in the experiment with OVCAR-5 ovarian is greater than 100 µM.

As for `O=C1C/C(=C/c2ccc(/C=C3/CC(=O)N(c4cccc(Br)c4)C3=O)cc2)C(=O)N1c1cccc(Br)c1`, the total growth inhibition concentration (TGI) with 786-0 renal, in the experiment on A498 renal, in the experiment with A549 NSCLC, in the experiment with CAKI-1 renal, in the experiment on COLO 205 colon and in the experiment on HCT-15 colon was greater than 100 µM throughout. Further, the TGI in the experiment on MALME-3M melanoma is greater than 100 µM; in the experiment with OVCAR-5 ovarian it was greater than 100 µM; with RXF 393 renal it was 93.4 µM.

Take `COC(=O)[C@@H]1CSC(=S)N1C(=O)C[C@H]1CC=CC[C@H]1CC(=O)Sc1ccccc1`: the concentration for total growth inhibition (TGI) amounted to 32.3 µM with 786-0 renal; 40.1 µM in the experiment with A549 NSCLC; 37.1 µM with COLO 205 colon; 32.3 µM in the experiment with HCT-15 colon; 56.7 µM with MALME-3M melanoma; 33.8 µM in the experiment on OVCAR-5 ovarian. Besides, the TGI in the experiment with RXF 393 renal was 30.4 µM.

As for `O=C(CCn1[nH]c(=O)c(Cl)c(Cl)c1=O)NOCCCc1ccccc1`, the TGI in the experiment with 786-0 renal, in the experiment on A498 renal, in the experiment with A549 NSCLC, in the experiment with CAKI-1 renal, with HCT-15 colon and in the experiment with MALME-3M melanoma was greater than 100 µM in each case. Further, the TGI in the experiment on OVCAR-5 ovarian is greater than 100 µM.
